In PubChem BioAssay (NCI):
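Briefly, cells in 96-well plates were exposed to five compound concentrations for 48 h, and endpoints were estimated by linear interpolation. The concentration for 50% growth inhibition is given as GI50. The concentration for full growth arrest is given as TGI.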

Key:
Experiment in all cases: NCI-60 cell line screen, 48 h
K-562 leukemia = system: K-562 leukemia
OVCAR-8 ovarian = system: OVCAR-8 ovarian
HCT-116 colon = system: HCT-116 colon
MALME-3M melanoma = system: MALME-3M melanoma
EKVX NSCLC = system: EKVX NSCLC
ACHN renal = system: ACHN renal
IGROV1 ovarian = system: IGROV1 ovarian
OVCAR-5 ovarian = system: OVCAR-5 ovarian
PC-3 prostate = system: PC-3 prostate
MCF7 breast = system: MCF7 breast

COCCOCC(=O)N(CCn1ccc(NC(c2ccccc2)(c2ccccc2)c2ccccc2)nc1=O)CCn1cnc2nc(N)[nH]c(=O)c21
TGI (K-562 leukemia): > 100 µM
TGI (OVCAR-8 ovarian): > 100 µM
TGI (HCT-116 colon): > 100 µM
TGI (MALME-3M melanoma): > 100 µM
TGI (EKVX NSCLC): > 100 µM
TGI (ACHN renal): > 100 µM
TGI (IGROV1 ovarian): > 100 µM
TGI (OVCAR-5 ovarian): > 100 µM

C=C1C(=O)O[C@H]2[C@H]1CC/C(COC(=O)c1ccc(C#N)cc1)=C\CC[C@@]1(C)O[C@@H]21
GI50 (K-562 leukemia): 1.94 µM
TGI (K-562 leukemia): 13 µM
GI50 (OVCAR-8 ovarian): 2.75 µM
TGI (OVCAR-8 ovarian): 11.2 µM
GI50 (PC-3 prostate): 3.97 µM
TGI (PC-3 prostate): 15.6 µM
GI50 (HCT-116 colon): 1.42 µM
TGI (HCT-116 colon): 2.77 µM
GI50 (MALME-3M melanoma): 2.04 µM
TGI (MALME-3M melanoma): 4.16 µM
GI50 (EKVX NSCLC): 2.26 µM
TGI (EKVX NSCLC): 6.85 µM
GI50 (ACHN renal): 1.85 µM
TGI (ACHN renal): 4.26 µM
GI50 (IGROV1 ovarian): 1.38 µM
TGI (IGROV1 ovarian): 4.27 µM
GI50 (OVCAR-5 ovarian): 3.06 µM
TGI (OVCAR-5 ovarian): 9.51 µM

CC1=C(c2cc(C(=O)Nc3cccc(C(F)(F)F)c3)ncn2)Sc2ccccc2N1
TGI (K-562 leukemia): > 100 µM
TGI (OVCAR-8 ovarian): > 100 µM
TGI (HCT-116 colon): > 100 µM
TGI (MALME-3M melanoma): > 100 µM
TGI (EKVX NSCLC): > 100 µM
TGI (ACHN renal): > 100 µM
TGI (IGROV1 ovarian): > 100 µM

CC(=O)OC1CC2C(C)(C)C(=O)C=CC2(C)C2CCC3(C)C(c4ccoc4)OC(=O)C4OC43C12C (stereo not given)
TGI (K-562 leukemia): > 100 µM
TGI (OVCAR-8 ovarian): 53.9 µM
TGI (PC-3 prostate): > 100 µM
TGI (HCT-116 colon): 11.3 µM
TGI (EKVX NSCLC): > 100 µM
TGI (ACHN renal): > 100 µM
TGI (MCF7 breast): 29.5 µM
TGI (IGROV1 ovarian): > 100 µM
TGI (OVCAR-5 ovarian): > 100 µM

COc1ccc(/C(=N/NC(N)=O)C(c2ccc(OC)cc2)C2C(=O)Oc3ccccc32)cc1 (stereo not given)
TGI (K-562 leukemia): > 100 µM
TGI (OVCAR-8 ovarian): > 100 µM
TGI (HCT-116 colon): > 100 µM
TGI (MALME-3M melanoma): > 100 µM
TGI (IGROV1 ovarian): > 100 µM
TGI (OVCAR-5 ovarian): > 100 µM

CC(C)(C)C(=O)O[C@@H]1COC2C(O)COC21 (stereo not given in full)
TGI (K-562 leukemia): > 100 µM
TGI (OVCAR-8 ovarian): > 100 µM
TGI (HCT-116 colon): > 100 µM
TGI (MALME-3M melanoma): > 100 µM
TGI (ACHN renal): > 100 µM
TGI (IGROV1 ovarian): > 100 µM
TGI (OVCAR-5 ovarian): > 100 µM

CC1=C[S+](c2ccccc2)c2cccc3cc4ccccc4c1c23 (stereo not given)
GI50 (K-562 leukemia): 0.0712 µM
TGI (K-562 leukemia): 3.85 µM
GI50 (OVCAR-8 ovarian): 0.158 µM
TGI (OVCAR-8 ovarian): 3.73 µM
GI50 (PC-3 prostate): 0.247 µM
TGI (PC-3 prostate): 12.1 µM
GI50 (HCT-116 colon): 0.0655 µM
GI50 (MALME-3M melanoma): 0.372 µM
TGI (MALME-3M melanoma): 2.22 µM
GI50 (EKVX NSCLC): 0.333 µM
TGI (EKVX NSCLC): 4.99 µM
GI50 (ACHN renal): 0.734 µM
TGI (ACHN renal): 14.4 µM
GI50 (IGROV1 ovarian): 0.467 µM
TGI (IGROV1 ovarian): 3.11 µM
GI50 (OVCAR-5 ovarian): 1.11 µM
TGI (OVCAR-5 ovarian): 2.52 µM

CC(=O)OCC1O[C@@H]([S-])C(OC(C)=O)[C@H](OC(C)=O)[C@@H]1OC(C)=O.[Au+].c1ccc(CN2[CH-]N(Cc3ccccc3)C(c3ccccc3)=C2c2ccccc2)cc1
GI50 (OVCAR-8 ovarian): 2.61 µM
TGI (OVCAR-8 ovarian): 7.38 µM
GI50 (PC-3 prostate): 1.83 µM
TGI (PC-3 prostate): 3.7 µM
GI50 (HCT-116 colon): 1.64 µM
TGI (HCT-116 colon): 3.24 µM
GI50 (MALME-3M melanoma): 1.77 µM
TGI (MALME-3M melanoma): 4.06 µM
GI50 (ACHN renal): 1.82 µM
TGI (ACHN renal): 3.51 µM
GI50 (OVCAR-5 ovarian): 1.92 µM
TGI (OVCAR-5 ovarian): 3.96 µM

COc1ccc(-c2cc(=O)c3c(O)cc(C)cc3o2)cc1OC
TGI (K-562 leukemia): > 100 µM
TGI (PC-3 prostate): > 100 µM
TGI (HCT-116 colon): > 100 µM
TGI (MALME-3M melanoma): > 100 µM
TGI (EKVX NSCLC): > 100 µM
TGI (ACHN renal): > 100 µM
TGI (MCF7 breast): > 100 µM
TGI (IGROV1 ovarian): > 100 µM
TGI (OVCAR-5 ovarian): > 100 µM

COc1ccc(-c2c(-c3cc(OC)c4c(c3)OCO4)noc2N)cc1
GI50 (K-562 leukemia): 0.0193 µM
TGI (K-562 leukemia): > 100 µM
GI50 (OVCAR-8 ovarian): 0.0654 µM
TGI (OVCAR-8 ovarian): 22.8 µM
GI50 (PC-3 prostate): 0.0436 µM
TGI (PC-3 prostate): 60.1 µM
GI50 (HCT-116 colon): 0.0438 µM
TGI (HCT-116 colon): 19.5 µM
GI50 (EKVX NSCLC): 1.74 µM
TGI (EKVX NSCLC): > 71.3 µM
GI50 (ACHN renal): 0.108 µM
TGI (ACHN renal): 39.8 µM
GI50 (MCF7 breast): 0.028 µM
TGI (MCF7 breast): 28.5 µM
GI50 (IGROV1 ovarian): 0.093 µM
TGI (IGROV1 ovarian): > 100 µM
GI50 (OVCAR-5 ovarian): 0.339 µM
TGI (OVCAR-5 ovarian): 99.3 µM

COc1cc(-c2cc(=O)c3cc(C)c(C)c(C(=O)O)c3o2)cc(OC)c1OC
TGI (K-562 leukemia): > 100 µM
TGI (OVCAR-8 ovarian): > 100 µM
TGI (HCT-116 colon): > 100 µM
TGI (MALME-3M melanoma): > 100 µM
TGI (EKVX NSCLC): > 100 µM
TGI (ACHN renal): > 100 µM
TGI (IGROV1 ovarian): > 100 µM
TGI (OVCAR-5 ovarian): > 100 µM

CCOC(=O)Nc1ccc(-c2nc(-c3cccc(OC)c3)c(-c3ccnc(Br)c3)[nH]2)cc1
GI50 (K-562 leukemia): 2.76 µM
TGI (K-562 leukemia): > 100 µM
GI50 (OVCAR-8 ovarian): 2.98 µM
TGI (OVCAR-8 ovarian): > 100 µM
GI50 (PC-3 prostate): 2.52 µM
TGI (PC-3 prostate): 8.9 µM
GI50 (MALME-3M melanoma): 1.98 µM
TGI (MALME-3M melanoma): 5.73 µM
GI50 (EKVX NSCLC): 2.45 µM
TGI (EKVX NSCLC): 8.8 µM
GI50 (ACHN renal): 2.62 µM
TGI (ACHN renal): > 100 µM
GI50 (MCF7 breast): 2.13 µM
TGI (MCF7 breast): 7.18 µM
GI50 (IGROV1 ovarian): 2.69 µM
TGI (IGROV1 ovarian): 9.03 µM
GI50 (OVCAR-5 ovarian): 3.56 µM
TGI (OVCAR-5 ovarian): > 100 µM

COC1=Nc2ccccc2S(=O)(=O)C=C1
TGI (OVCAR-8 ovarian): 19.5 µM
TGI (PC-3 prostate): 28.7 µM
TGI (HCT-116 colon): 3.46 µM
TGI (MALME-3M melanoma): 6.84 µM
TGI (EKVX NSCLC): 32.1 µM
TGI (ACHN renal): 8.83 µM
TGI (MCF7 breast): 12.3 µM
TGI (IGROV1 ovarian): 28.1 µM
TGI (OVCAR-5 ovarian): 31.1 µM

Cc1ccc2[nH]c3c(ncc4[nH]c5ccccc5c43)c2c1
TGI (K-562 leukemia): 30.2 µM
TGI (OVCAR-8 ovarian): 35.9 µM
TGI (HCT-116 colon): 30.8 µM
TGI (MALME-3M melanoma): 33.7 µM
TGI (EKVX NSCLC): 29.3 µM
TGI (ACHN renal): 30.3 µM
TGI (IGROV1 ovarian): 29.6 µM
TGI (OVCAR-5 ovarian): 30.8 µM

O=C(Oc1ccccc1Cl)c1ccccc1Nc1ccnc(C(F)(F)F)c1
GI50 (K-562 leukemia): 0.0768 µM
TGI (K-562 leukemia): 3.39 µM
GI50 (OVCAR-8 ovarian): 0.366 µM
TGI (OVCAR-8 ovarian): 14.3 µM
GI50 (PC-3 prostate): 0.306 µM
TGI (PC-3 prostate): 3.55 µM
GI50 (HCT-116 colon): 1.78 µM
TGI (HCT-116 colon): 3.65 µM
GI50 (EKVX NSCLC): 6.85 µM
TGI (EKVX NSCLC): 26 µM
GI50 (ACHN renal): 0.281 µM
TGI (ACHN renal): 0.808 µM
GI50 (MCF7 breast): 1.01 µM
TGI (MCF7 breast): > 30.8 µM
GI50 (IGROV1 ovarian): 16.3 µM
TGI (IGROV1 ovarian): > 100 µM
GI50 (OVCAR-5 ovarian): 0.459 µM
TGI (OVCAR-5 ovarian): 24.4 µM

CCC(C(=O)[O-])C(=O)[O-].CCC(C(=O)[O-])C(=O)[O-].N.N.NCCCCCCN.[Pt+4].[Pt+4]
GI50 (K-562 leukemia): 1.79 µM
TGI (K-562 leukemia): 10.3 µM
GI50 (OVCAR-8 ovarian): 11.5 µM
TGI (OVCAR-8 ovarian): 28.1 µM
GI50 (HCT-116 colon): 5.59 µM
TGI (HCT-116 colon): 14 µM
GI50 (MALME-3M melanoma): 1 µM
TGI (MALME-3M melanoma): 1.9 µM
GI50 (EKVX NSCLC): 20.7 µM
TGI (EKVX NSCLC): 33.3 µM
GI50 (ACHN renal): 6.77 µM
TGI (ACHN renal): 13.4 µM
GI50 (IGROV1 ovarian): 8.13 µM
TGI (IGROV1 ovarian): 18.7 µM
GI50 (OVCAR-5 ovarian): 10.7 µM
TGI (OVCAR-5 ovarian): 19.7 µM

Cc1cc(C)c(S(=O)(=O)ONC(=O)OC(C)(C)C)c(C)c1
TGI (K-562 leukemia): > 100 µM
TGI (OVCAR-8 ovarian): > 100 µM
TGI (HCT-116 colon): > 100 µM
TGI (MALME-3M melanoma): > 100 µM
TGI (EKVX NSCLC): > 100 µM
TGI (ACHN renal): > 100 µM
TGI (IGROV1 ovarian): > 100 µM
TGI (OVCAR-5 ovarian): > 100 µM

CNC1C(O)C(OC2C(N)CC(N)C(OC3OC(C(C)O)C(O)C(O)C3N)C2O)OCC1(C)O (stereo not given)
TGI (K-562 leukemia): > 100 µM
TGI (OVCAR-8 ovarian): > 100 µM
TGI (PC-3 prostate): > 100 µM
TGI (HCT-116 colon): > 100 µM
TGI (EKVX NSCLC): > 100 µM
TGI (ACHN renal): > 100 µM
TGI (MCF7 breast): > 100 µM
TGI (IGROV1 ovarian): > 100 µM
TGI (OVCAR-5 ovarian): > 100 µM
